Results reported in patent US20250351832A1, “PHYTOCHEMICALS AS BIOPESTICIDES AND BIOSTIMULANTS” (KAY BEE BIO ORGANICS PVT. LTD., priority 2024, published 2025).
Like-named read-outs stand apart in the source and are kept apart here.

How the values were obtained:
Alternaria alternata = experiment: In vitro poisoned food technique against fungus (Ex. 20); assay type: cell-based
tomato seedlings = experiment: Response of tomato plants, greenhouse growth (Ex. 30); assay type: in vivo; settings: for CCI 5th Day / Plant Height 5th Day / Stem Girth 5th Day: 120 h; for CCI 10th Day / Plant Height 10th Day / Root Length % Increase over control / Stem Girth 10th Day: 240 h
chili seedlings = experiment: Response of chili plants, greenhouse growth (Ex. 31); assay type: in vivo; settings: for CCI 5th Day / Plant Height (cm) 5th Day: 120 h; for CCI 10th Day / Plant Height (cm) 10th Day / Root Lenght % Increase over control: 240 h; for CCI % Increase over pre on 10th Day / Plant Height % Increase over pre on 10th Day / Root Lenght (cm) 10th Day / Stem Girth % Increase over pre on 10th Day: chili seedlings, dose 1 ml/gm/lit
Aphid [1] = test system: Aphid
Mite [2] = settings: Dose 1 ml/gm/lit.; 48 hrs
Helicoverpa armigera [3] = settings: Helicoverpa armigera on okra fruits, dose 1 ml/gm/lit., 72 Hrs.
Spodoptera litura [4] = settings: 72 h, 1 mL or g/L
Thrips [5] = settings: 48 h, 1 mL or g/L
Aphid [6] = settings: 48 h, 1 mL or g/L
Mite [7] = settings: mite on okra plants, green house; dose 1 ml/gm/lit. spray; 48 hrs after application
Helicoverpa armigera [8] = settings: Helicoverpa armigera 3rd instar on chickpea plants, dose 1 ml/gm/lit. spray
Spodoptera litura [9] = settings: Spodoptera litura 3rd instar on cabbage plants; dose 1 ml/gm/lit. spray; 72 hrs after application
Thrips [10] = settings: 48 h
[11] = cited from earlier work; for Phytotonic Effect: Table 13, effect on plants, descriptive
Spodoptera litura [12] = experiment: whole plant or invertebrate; settings: 72 h
Thrips [13] = experiment: whole plant or invertebrate; settings: in Gossypium hirsutum, 48 h
Aphid [14] = experiment: whole plant or invertebrate; settings: 48 h
Mealy Bug [15] = experiment: In vitro bio-efficacy against mealy bug (Ex. 16); settings: in vivo
Mite [16] = experiment: Green house effect on mite, okra plants (Ex. 23); settings: in vivo
Thrips [17] = experiment: Greenhouse effect on thrips, cotton plants (Ex. 27); settings: in vivo
Mealy Bug [18] = experiment: Green house effect on mealy bugs, cotton plants (Ex. 24); settings: in vivo
Spodoptera litura [19] = experiment: Controlled conditions, Spodoptera litura on cabbage plants (Ex. 26); settings: in vivo
Helicoverpa armigera [20] = experiment: In vitro bio-efficacy against Helicoverpa armigera (Ex. 17); settings: in vivo
Helicoverpa armigera [21] = experiment: Controlled conditions, Helicoverpa armigera on chickpea plants (Ex. 25); settings: in vivo
[22] = tomato seedlings, 10th day, dose 1 ml/gm/lit
[23] = tomato seedlings, dose 1 ml/gm/lit, 10th day
[24] = Table 13, descriptive, no test described
[25] = read-out: % Corrected Mortality at 72 Hrs.
[26] = read-out: % Mortality at 72 Hrs.
[27] = read-out: % Corrected Mortality at 48 Hrs.
[28] = read-out: % Mortality at 48 Hrs.

C=C(C)[C@H]1CC=C(C)CC1 [D-limonene]
inhibition of growth at 1 mL or g/L (Alternaria alternata; […]): 46.6%
CCI Pre (tomato seedlings): 11.59
Plant Height Pre (tomato seedlings): 5.52 cm
Stem Girth Pre (tomato seedlings): 1.30 mm
CCI 5th Day (tomato seedlings): 13.66
Plant Height 5th Day (tomato seedlings): 6.44 cm
Stem Girth 5th Day (tomato seedlings): 1.98 mm
CCI 10th Day (tomato seedlings): 15.54
Plant Height 10th Day (tomato seedlings): 7.56 cm
Root Length % Increase over control (tomato seedlings): 25.57%
Stem Girth 10th Day (tomato seedlings): 2.21 mm
Plant Height % Increase over pre on 10th Day (tomato seedlings; [22]): 36.96%
Stem Girth % Increase over pre on 10th Day (tomato seedlings; [22]): 69.48%
CCI % Increase over pre on 10th Day (tomato seedlings; [23]): 34.08%
CCI Pre (chili seedlings): 10.30
Plant Height (cm) Pre (chili seedlings): 4.90 cm
CCI 5th Day (chili seedlings): 13.60
Plant Height (cm) 5th Day (chili seedlings): 6.97 cm
CCI 10th Day (chili seedlings): 17.4
Plant Height (cm) 10th Day (chili seedlings): 8.24 cm
Root Lenght % Increase over control (chili seedlings): 61.51%
CCI % Increase over pre on 10th Day (chili seedlings): 68.93%
Plant Height % Increase over pre on 10th Day (chili seedlings): 68.16%
Root Lenght (cm) 10th Day (chili seedlings): 4.42 cm
Stem Girth % Increase over pre on 10th Day (chili seedlings): 60.00%
Total No. of dead insect at 48 Hrs. (Aphid [1]): 6.25
% Corrected Mortality at 48 Hrs. (Aphid [1]; Dose 1 ml/gm/lit., 48 hrs): 57.14%
% Corrected Mortality at 48 Hrs. (Mite [2]): 45.95%
% Mortality at 48 Hrs. (Mite [2]): 50.00%
% Mortality at 72 Hrs. (Helicoverpa armigera [3]): 32.50%
% Corrected Mortality at 72 Hrs. (Helicoverpa armigera [3]; corrected for water control): 32.50%
Total No. of dead insect at 72 Hrs. (Spodoptera litura [4]): 2.50
Total No. of dead insect at 48 Hrs. (Thrips [5]): 3.75
Total No. of dead insect at 48 Hrs. (Aphid [6]): 62.50
% Mortality at 48 Hrs. (Mite [7]): 52.50%
% Mortality at 72 Hrs. (Helicoverpa armigera [8]; 72 hrs after application): 32.50%
% Corrected Mortality at 72 Hrs. (Helicoverpa armigera [8]; 72 hrs, corrected for water control): 32.50%
% Mortality at 72 Hrs. (Spodoptera litura [9]): 27.50%
Total No. of dead insect at 48 Hrs. (Thrips [10]): 37.50
Acaricidal Activity - Mode of action [11, 24]: Ovicidal, repellent activity
Antioxidant Activity - Mode of action [11, 24]: Possesses antioxidant
Virucidal Activity - Mode of action [11, 24]: Exhibits viricidal activities
Phytotonic Effect [11]: Exhibits plant
mortality at 1 mL or g/L (Spodoptera litura [12]; [25]): 21.1%
mortality at 1 mL or g/L (Spodoptera litura [12]; [26]): 25%
mortality at 1 mL or g/L (Thrips [13]; [27]): 28.6%
mortality at 1 mL or g/L (Thrips [13]; [28]): 37.5%
mortality at 1 mL or g/L (Aphid [14]; [27]): 55.9%
mortality at 1 mL or g/L (Aphid [14]; [28]): 62.5%
% Corrected Mortality at 48 Hrs. (Mealy Bug [15]): 39.47%
% Mortality at 48 Hrs. (Mealy Bug [15]): 42.50%
% Corrected Mortality at 48 Hrs. (Mite [16]): 50.00%
% Corrected Mortality at 48 Hrs. (Thrips [17]): 30.56%
% Corrected Mortality at 48 Hrs. (Mealy Bug [18]): 38.89%
% Mortality at 48 Hrs. (Mealy Bug [18]): 45.00%
% Corrected Mortality at 72 Hrs. (Spodoptera litura [19]): 23.68%

C=CCc1ccc(O)c(OC)c1 [Eugenol]
inhibition of growth at 1 mL or g/L (Alternaria alternata; poisoned food technique, PDA medium, dose 1 ml/gm/lit., after seven days, vs untreated control, read-out: % Inhibition of growth): 42.6%
CCI Pre (tomato seedlings): 11.50
Plant Height Pre (tomato seedlings): 5.65 cm
Stem Girth Pre (tomato seedlings): 1.34 mm
CCI 5th Day (tomato seedlings): 13.74
Plant Height 5th Day (tomato seedlings): 6.66 cm
Stem Girth 5th Day (tomato seedlings): 1.70 mm
CCI 10th Day (tomato seedlings): 15.48
Plant Height 10th Day (tomato seedlings): 7.56 cm
Root Length % Increase over control (tomato seedlings): 31.25%
Stem Girth 10th Day (tomato seedlings): 2.31 mm
Plant Height % Increase over pre on 10th Day (tomato seedlings; [22]): 33.81%
Stem Girth % Increase over pre on 10th Day (tomato seedlings; [22]): 72.90%
CCI % Increase over pre on 10th Day (tomato seedlings; [23]): 34.61%
Root Length (cm) 10th Day (tomato seedlings; [23]): 4.37 cm
CCI Pre (chili seedlings): 10.10
Plant Height (cm) Pre (chili seedlings): 4.57 cm
CCI 5th Day (chili seedlings): 13.40
Plant Height (cm) 5th Day (chili seedlings): 6.53 cm
CCI 10th Day (chili seedlings): 15.48
Plant Height (cm) 10th Day (chili seedlings): 7.59 cm
Root Lenght % Increase over control (chili seedlings): 52.07%
CCI % Increase over pre on 10th Day (chili seedlings): 53.27%
Plant Height % Increase over pre on 10th Day (chili seedlings): 66.08%
Root Lenght (cm) 10th Day (chili seedlings): 4.16 cm
Stem Girth % Increase over pre on 10th Day (chili seedlings): 54.59%
Total No. of dead insect at 48 Hrs. (Aphid [1]): 6.00
% Corrected Mortality at 48 Hrs. (Aphid [1]; Dose 1 ml/gm/lit., 48 hrs): 54.29%
% Mortality at 48 Hrs. (Aphid [1]; Dose 1 ml/gm/lit., 48 hrs): 60.00%
% Corrected Mortality at 48 Hrs. (Mite [2]): 48.65%
Total No. of dead insect at 72 Hrs. (Spodoptera litura [4]): 6.00
Total No. of dead insect at 48 Hrs. (Thrips [5]): 2.50
Total No. of dead insect at 48 Hrs. (Aphid [6]): 65.00
Total No. of dead insect at 48 Hrs. (Thrips [10]): 27.50
Acaricidal Activity - Mode of action [11, 24]: Inhibitory effects against
Antifungal Activity - Mode of action [11, 24]: Inhibition of myceial growth
Antioxidant Activity - Mode of action [11, 24]: Scavenge free radicals,
Bactericidal Activity - Mode of action [11, 24]: Alters membrane permeability
Insecticidal Activities - Mode of action [11, 24]: Growth inhibitory,
Nematicidal Activity - Mode of action [11, 24]: Inhibited egg differentiation
Virucidal Activity - Mode of action [11, 24]: Inactivated the cell-free
Phytotonic Effect [11]: Regulating
mortality at 1 mL or g/L (Spodoptera litura [12]; [25]): 57.9%
mortality at 1 mL or g/L (Spodoptera litura [12]; [26]): 60%
mortality at 1 mL or g/L (Thrips [13]; [27]): 14.3%
mortality at 1 mL or g/L (Thrips [13]; [28]): 25%
mortality at 1 mL or g/L (Aphid [14]; [27]): 58.8%
mortality at 1 mL or g/L (Aphid [14]; [28]): 65%
% Corrected Mortality at 48 Hrs. (Mealy Bug [15]): 63.16%
% Mortality at 48 Hrs. (Mealy Bug [15]): 65.00%
% Corrected Mortality at 48 Hrs. (Mite [16]): 50.00%
% Mortality at 48 Hrs. (Mite [16]): 52.50%
% Corrected Mortality at 48 Hrs. (Thrips [17]): 19.44%
% Mortality at 48 Hrs. (Thrips [17]): 27.50%
% Corrected Mortality at 48 Hrs. (Mealy Bug [18]): 72.22%
% Mortality at 48 Hrs. (Mealy Bug [18]): 75.00%
% Corrected Mortality at 72 Hrs. (Helicoverpa armigera [20]): 47.50%
% Mortality at 72 Hrs. (Helicoverpa armigera [20]): 47.50%
% Corrected Mortality at 72 Hrs. (Spodoptera litura [19]): 60.53%
% Mortality at 72 Hrs. (Spodoptera litura [19]): 62.50%
% Corrected Mortality at 72 Hrs. (Helicoverpa armigera [21]): 42.50%
% Mortality at 72 Hrs. (Helicoverpa armigera [21]): 42.50%
